These results are taken from patent US6444696B1, “Pyrazole derivatives P38 MAP kinase inhibitors” (Syntex (U.S.A.) LLC, priority 1998, dated 2002).

The term IC50 denotes the concentration at which inhibition is half-maximal. As a reminder, the melting point is the temperature of the solid-liquid transition.

In one data set the test system is TNF-α Production In Rats. Put plainly: Inhibition of LPS-induced TNF-α production in rats, in vivo assay. More on the design: species or system rat. The settings on record: dosed orally at 30 mg, LPS 50 μg/kg intraperitoneally after 30 min, serum TNF-α 1.5 h later. As for the experimental part:
The ability of the compounds of this invention to inhibit the TNF-α release, in vivo, was determined using a minor modification of the methods described in described in Zanetti, G.; Heumann, D., et. al. “Cytokine production after intravenous or peritoneal Gram-negative bacterial challenge in mice,” J. Immunol., 148, 1890, (1992) and Sekut, L., Menius, J. A., et. al., “Evaluation of the significance of elevated levels of systemic and localized tumor necrosis factor in different animal models of inflammation,” J. Lab. Clin. Med., 124, 813, (1994).
Female Sprague-Dawley rats weighing 110-140 grams (Charles River, Hollister, Calif.) were acclimated for one week. Groups containing 8 […] each were dosed orally either with the test compounds dissolved in an aqueous vehicle containing 0.9% sodium chloride, 0.5% sodium carboxymethyl-cellulose, 0.4% polysorbate 80, 0.9% benzyl alcohol (CMC vehicle) or only vehicle (control group). After 30 min., the mice were injected intraperitoneally with 50 μg/kg of LPS (Sigma, St. Louis, Mo.). After 1.5 h, the mice were sacrificed by CO2 inhalation and blood was harvested by cardiocentesis. Blood was clarified by centrifugation at 15,600×g for 5 min., and sera were transferred to clean tubes and frozen at −20° C. until analyzed for TNF-α by ELISA assay (Biosource International, Camarillo, Calif.) following the manufacturer's protocol. […]

For a further data set, the target named is T1, p38 MAP kinase (Homo sapiens, UniProt Q16539).
T1 construct: made in house; host or cells: E. coli (co-expressed with SEK-1 and MEKK to obtain the phosphorylated form)
T1 sequence (Q16539 whole entry): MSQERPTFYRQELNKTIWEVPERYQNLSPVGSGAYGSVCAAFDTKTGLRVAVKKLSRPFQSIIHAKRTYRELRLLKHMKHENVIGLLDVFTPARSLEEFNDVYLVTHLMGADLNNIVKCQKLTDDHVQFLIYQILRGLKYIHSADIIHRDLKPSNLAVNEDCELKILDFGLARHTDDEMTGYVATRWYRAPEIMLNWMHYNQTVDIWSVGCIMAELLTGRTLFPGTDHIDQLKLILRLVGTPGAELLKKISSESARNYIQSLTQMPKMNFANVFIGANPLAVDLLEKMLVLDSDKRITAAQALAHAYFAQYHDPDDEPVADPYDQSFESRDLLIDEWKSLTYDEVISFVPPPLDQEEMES
Put plainly: Inhibition of p-38 (MAP) kinase, in vitro assay (transfer of γ-33P from ATP to Myelin Basic Protein). The class given is biochemical. The settings on record: phosphorylated recombinant p38 MAP kinase, MBP substrate, γ-33P-ATP, 30° C.; read-out: IC50, μM (p-38 inhibitory activity). As for the experimental part: The p-38 MAP kinase inhibitory activity of compounds of this invention in vitro was determined by measuring the transfer of the γ-phosphate from γ-^33P-ATP by p-38 kinase to Myelin Basic Protein (MBP), using the a minor modification of the method described in Ahn, N. G.; et al. J. Biol. Chem. Vol. 266(7), 4220-4227, (1991).
The phosphorylated form of the recombinant p38 MAP kinase was expressed with SEK-1 and MEKK in E. Coli and then purified by affinity chromatography using a Nickel column.
The phosphorylated p38 MAP kinase was diluted in kinase buffer (20 mM 3-(N-morpholino)propanesulfonic acid, pH 7.2, 25 mM β-glycerol phosphate, 5 mM ethylene glycol-bis(beta-aminoethyl ether)-N,N,N′,N′-tetraacetic acid, 1 mM sodium vanadate, 1 mM dithiothreitol, 40 mM magnesium chloride). Test compound dissolved in DMSO or only DMSO (control) was added and the samples were incubated for 10 min at 30° C. The kinase reaction was initiated by the addition of a substrate cocktail containing MBP and γ-^33P-ATP. After incubating for an additional 20 min at 30° C., the reaction was terminated by adding 0.75% phosphoric acid. The phosphorylated MBP was then separated from the residual γ-^33P-ATP using a phosphocellulose membrane (Millipore, Bedford, Mass.) and quantitated using a scintillation counter (Packard, Meriden, Conn.).
Compounds of the invention were active in this assay.

Data set [1] concerns TNF-α Production In THP 1 Cells. Put plainly: Inhibition of LPS-induced TNF-α production in THP-1 cells, in vitro assay (ELISA). It is filed as cell-based. The settings on record: Homo sapiens, LPS 0.5 μg/ml, 2 h, TNF-α by ELISA, read-out: IC50, μM (inhibition of TNF-α release). As for the experimental part: The ability of the compounds of this invention to inhibit the TNF-α release was determined using a minor modification of the methods described in described in Blifeld, C. et al. Transplantation, Vol. 51(2), 498-503, (1991).
THP-1 cells were suspended in culture medium [RPMI (Gibco-BRL, Gailthersburg, Md.) containing 15% fetal bovine serum, 0.02 mM 2-mercaptoethanol], at a concentration of 2.5×10^6 cells/ml and then plated in 96 well plate (0.2 ml aliquots in each well). Test compounds were dissolved in DMSO and then diluted with the culture medium such that the final DMSO concentration was […]. 20 μl aliquots of test solution or only medium with DMSO (control) were added to each well. The cells were incubated for 30 min., at 37° C. LPS (Sigma, St. Louis, Mo.) was added to the wells at a final concentration of 0.5 μg/ml, and cells were incubated for an additional 2 h. At the end of the incubation period, culture supernatants were collected and the amount of TNF-α present was determined using an ELISA assay as described below.
The amount of human TNF-α present was determined by a specific trapping ELISA assay using two anti-TNF-α antibodies (2TNF-H22 and 2TNF-H34) described in Reimund, J. M., et al. GUT. Vol. 39(5), 684-689 (1996).
Polystyrene 96-well plates were coated with 50 μl per well of antibody 2TNF-H22 in PBS (10 μg/ml) and incubated in a humidified chamber at 4° C. overnight. The plates were washed with PBS and then blocked with 5% nonfat-dry milk in PBS for 1 hour at room temperature and washed with 0.1% BSA (bovine serum albumin) in PBS.
TNF standards were prepared from a stock solution of human recombinant TNF-α (R&D Systems, Minneapolis, Minn.). The concentration of the standards in the assay began at 10 ng/ml followed by 6 half log serial dilution's.
25 μl aliquots of the above culture supernatants or TNF standards or only medium (control) were mixed with 25 μl aliquots of biotinylated monoclonal antibody 2TNF-H34 (2 μg/ml in PBS containing 0.1% BSA) and then added to each well. The samples were incubated for 2 h at room temperature with gentle shaking and then washed 3 times with 0.1% BSA in PBS. 50 μl of peroxidase-streptavidin (Zymed, S. San Francisco, Calif.) solution containing 0.416 μg/ml of peroxidase-streptavidin and 0.1% BSA in PBS was added to each well. The samples were incubated for an additional 1 h at room temperature and then washed 4 times with 0.1% BSA in PBS. 50 μl of O-phenylenediamine solution (1 μg/ml O-phenylene-diamine and 0.03% hydrogen peroxide in 0.2M citrate buffer pH 4.5) was added to each well and the samples were incubated in the dark for 30 min., at room temperature. Optical density of the sample and the reference were read at 450 nm and 650 nm, respectively. TNF-α levels were determined from a graph relating the optical density at 450 nm to the concentration used.
The IC50 value was defined as the concentration of the test compound corresponding to half-maximal reduction in 450 nm absorbance. Compounds of the invention were active in this assay. The activity of selected compounds is shown below.

For the compound `CN1CCN(CC#Cc2cccc(C(=O)c3cnn(-c4ccc(F)cc4)c3N)c2)CC1.Cl.Cl` [compound 8, 5-amino-1-(4-fluorophenyl)-4-{3-[3-(4-methylpiperazin-1-yl)prop-1-ynyl]benzoyl}pyrazole.2HCl], the “% Inhibition (TNF-α content in test group relative to vehicle treated group)” value in the data set with TNF-α Production In Rats amounted to 86%.

For `Nc1cccc(C(=O)c2cnn(-c3ccc(F)cc3)c2N)c1` [compound 43, 5-amino-4-(3-aminobenzoyl)-1-(4-fluorophenyl)pyrazole], the melting point was 165.2 to 165.8 °C. Besides, at p38 MAP kinase, the half-inhibitory concentration (IC50) is 6.52 µM. In addition, in data set [1], the IC50 stood at 0.17 µM.

`Nc1c(C(=O)c2ccc(CCCO)cc2)cnn1-c1ccccc1` [compound 1] gave a melting point of 148 to 152.5 °C. The IC50 at p38 MAP kinase amounted to 1.81 µM. For the same compound, in data set [1], the IC50 amounted to 1.77 µM.
